Laboratory results as given in patent US6358921B1, “Antimicrobial peptide compositions and method” (priority 1996, dated 2002).

Experiments:
[1] = Displacement of dansyl-polymyxin from LPS; format: binding, P. aeruginosa; details: read-out: LPS binding affinity: peptide concentration to displace 50% of dansyl-polymyxin B from LPS; Tables 1, 4, 7
Excerpt: In order to determine whether ring size affects the interaction between the peptide and bacterial membranes, we studied the interaction between the GS ring analogs and bacterial lipopolysaccharide (LPS). It has been shown previously that dansyl-polymixin (DPX) is a good probe for cationic binding sites on both purified LPS as well as whole bacterial cells (Example 8; Moore, et al., 1986; Sawyer, et al., 1988; Hancock, 1981). […] The LPS binding activity of various GS analogs was investigated, as discussed above.
Dansyl-polymixin (DPX) displacement from P. aeruginosa LPS was measured as described (Moore, et al., 1986). Briefly, peptides were titrated into cuvettes containing 3 μg of LPS per mL and 2.5 μM dansyl-polymixin (approximately 90% saturation of LPS binding sites) in 1 mL of 5 mM sodium HEPES buffer, pH 7.0, and the decrease in fluorescence recorded. A plot of the inverse of the percent inhibition as a function of the inverse of inhibitor concentration gave a value for I50, the inhibitor concentration resulting in 50% displacement of dansyl-polymixin from LPS (−1/× intercept).

E. coli UB1005 = format: cell-based, Escherichia coli; details: UB1005
Excerpt: (§1) The following bacterial strains were utilized: Escherichia coli UB1005 (wt) and its antibiotic supersusceptible derivative DC2 (Clark, 1984); Excherichia coli SC9251 and its polymixin B rasistant mutant pmrA SC9252 (Peterson, et al., 1987) Pseudomonas aeruginosa H187 (wt) (Angus, et al., 1987) and its antibiotic-sensitive derivative H188 (Zimmerman, W, Antimicrob. Agents Chemother. 18: 94-100, 1980); methicillin sensitive Staphylococcus aureus K147 (Kreiswirth, et al., 1983); Staphylococcus aureus SAP0017, a methicillin resistant clinical isolate from Dr. A. Chow (University of British Columia); Bacillus subtilis, an environmental wt lab strain. Enterococcus faecalis are ATCC 29212 cells and Staphylococcus epidermidis was a clinical isolate from Dr. D. Speert (University of British Columbia). Antifungal activity was tested using a clinical lab isolate of Candida albicans. Salmonella typhinurium C57 and C610 (Fields, P.I., et al., Science 243: 1059-1062 (1989) Corynebacterium xerosis was an environmental isolate (University of British Columbia).
(§2) It is now apparent that agar-based assays severely underestimate antifungal activity as well as activity against gram negative microorganisms (Kondejewski, et al., 1996). Consequently, in the studies reported herein, a liquid-broth method was used to measure the antibiotic properties of the peptides. […] Briefly, cells were grown overnight at 37° C. in LB and diluted in the same medium. Serial dilutions of antibiotics were added to the microtitre plates in a volume of 100 μL followed by 10 μL of bacteria to give a final inoculum of 5×10^5 CFU/mL. Plates were incubated at 37° C. overnight and MICs determined as the lowest antibiotic concentration that inhibited growth. […]

S. typhinurium C610 = format: cell-based, Salmonella typhinurium
Excerpt: as §1, §2

S. typhinurium C587 = format: cell-based, Salmonella typhinurium
Excerpt: as §1, §2

P. aeruginosa H187 = format: cell-based, Pseudomonas aeruginosa; details: H187
Excerpt: as §1
(§3) It is now apparent that agar-based assays severely underestimate antifungal activity as well as activity against gram negative microorganisms (Kondejewski, et al., 1996). Consequently, in the studies reported herein, a liquid-broth method was used to measure the antibiotic properties of the peptides. […] Briefly, cells were grown overnight at 37° C. in LB and diluted in the same medium. Serial dilutions of antibiotics were added to the microtitre plates in a volume of 100 μL followed by 10 μL of bacteria to give a final inoculum of 5×10^5 CFU/mL. Plates were incubated at 37° C. overnight and MICs determined as the lowest antibiotic concentration that inhibited growth.
(§4) The results from antimicrobial and hemolytic assays are combined to provide a “Therapeutic Index” (TI) for each peptide with respect to individual microorganisms. As reported herein, the TI is calculated as the hemolytic activity divided by the antimicrobial activity. The TI thus is a measure of specificity of the particular peptide for microbial membranes as opposed to human blood cell membranes. In the present studies, antimicrobial activities are reported as minimum inhibitory concentrations (MIC)—the lowest concentration of peptide (μg/ml) found to inhibit growth of the particular microbe. Hemolytic activity is reported as the concentration of peptide that effected complete lysis of blood cells after four hours. Thus, in the context of the present invention high TI values indicate microbial specificity and relative lack of toxicity.

S. aureus SAP0017 = format: cell-based, Staphylococcus aureus
Excerpt: as §1, §3, §4

S. aureus K147 = format: cell-based, Staphylococcus aureus
Excerpt: as §1, §3, §4

E. coli DC2 = format: cell-based, Escherichia coli; details: DC2
Excerpt: as §1, §3, §4

C. xeroses = format: cell-based, Corynebacterium xerosis
Excerpt: as §1, §2

S. epidermidis = format: cell-based, Staphylococcus epidermidis
Excerpt: as §1, §2

P. aeruginosa H188 = format: cell-based, Pseudomonas aeruginosa; details: H188
Excerpt: as §1, §2

E. faecalis = format: cell-based, Enterococcus faecalis
Excerpt: as §1, §2

C. Albicans = format: cell-based, Candida albicans
Excerpt: as §1, §2

B. subtilis = format: cell-based, Bacillus subtilis
Excerpt: as §1, §2

Compound | IC50 [1] | Minimum Inhibitory Concentration (activity) (E. coli UB1005) | Minimum Inhibitory Concentration (activity) (S. typhinurium C610) | Minimum Inhibitory Concentration (activity) (S. typhinurium C587) | Minimum Inhibitory Concentration (activity) (P. aeruginosa H187) | Minimum Inhibitory Concentration (activity) (S. aureus SAP0017) | Minimum Inhibitory Concentration (activity) (S. aureus K147) | Minimum Inhibitory Concentration (activity) (E. coli DC2) | Minimum Inhibitory Concentration (activity) (C. xeroses) | Minimum Inhibitory Concentration (activity) (S. epidermidis) | Minimum Inhibitory Concentration (activity) (P. aeruginosa H188) | Minimum Inhibitory Concentration (activity) (E. faecalis) | Minimum Inhibitory Concentration (activity) (C. Albicans) | Minimum Inhibitory Concentration (activity) (B. subtilis)
CC(C)C[C@@H]1NC(=O)[C@H](CCCCN)NC(=O)[C@H](C(C)C)NC(=O)[C@@H]2CCCN2C(=O)[C@@H](Cc2ccc(O)cc2)NC(=O)[C@H](CC(C)C)NC(=O)[C@H](CCCCN)NC(=O)[C@H](C(C)C)NC(=O)[C@H](CCCCN)NC(=O)[C@H](CC(C)C)NC(=O)[C@H]2CCCN2C(=O)[C@@H](Cc2ccc(O)cc2)NC(=O)[C@H](C(C)C)NC(=O)[C@H](CCCCN)NC1=O [GS14P7] | 18 µM | 200 µg/mL | 200 µg/mL | >200 µg/mL | 200 µg/mL | >200 µg/mL | >200 µg/mL | 6.2 µg/mL | 1 µg/mL | 6.2 µg/mL | 100 µg/mL | 6.2 µg/mL | 25 µg/mL | >200 µg/mL
CC(C)C[C@@H]1NC(=O)[C@H](CCCCN)NC(=O)[C@H](C(C)C)NC(=O)[C@@H]2CCCN2C(=O)[C@@H](Cc2ccc(O)cc2)NC(=O)[C@H](CC(C)C)NC(=O)[C@H](CCCCN)NC(=O)[C@H](C(C)C)NC(=O)[C@@H](CCCCN)NC(=O)[C@H](CC(C)C)NC(=O)[C@@H]2CCCN2C(=O)[C@@H](Cc2ccc(O)cc2)NC(=O)[C@H](C(C)C)NC(=O)[C@H](CCCCN)NC1=O [GS14K9] | 60 µM | – | 6.2 µg/mL | 17 µg/mL | 50 µg/mL | 25 µg/mL | 50 µg/mL | 3.1 µg/mL | 1.5 µg/mL | 6.2 µg/mL | 62 µg/mL | 1.5 µg/mL | 6.2 µg/mL | 25 µg/mL
CC(C)C[C@@H]1NC(=O)[C@H](CCCCN)NC(=O)[C@H](C(C)C)NC(=O)[C@@H]2CCCN2C(=O)[C@H](Cc2ccc(O)cc2)NC(=O)[C@H](CC(C)C)NC(=O)[C@H](CCCCN)NC(=O)[C@H](C(C)C)NC(=O)[C@H](CCCCN)NC(=O)[C@H](CC(C)C)NC(=O)[C@@H]2CCCN2C(=O)[C@@H](Cc2ccc(O)cc2)NC(=O)[C@H](C(C)C)NC(=O)[C@H](CCCCN)NC1=O [GS14Y13] | 24 µM | 100 µg/mL | >200 µg/mL | >200 µg/mL | >200 µg/mL | >200 µg/mL | >200 µg/mL | 3.1 µg/mL | 1 µg/mL | 9 µg/mL | 100 µg/mL | 3.1 µg/mL | 25 µg/mL | >200 µg/mL
